Results from ChEMBL document CHEMBL1201862, “PubChem BioAssay data set” (2004).
Active and inactive are the calls of the source.

Legend:
[1] = biological target: T1, Lysosomal acid glucosylceramidase (Homo sapiens, UniProt P04062); assay: Dose response cell-based high throughput screening assay to identify enhancers of beta-glucosidase activity. [Related pubchem assays: 784 ]; format: functional
T1 sequence (P04062 whole entry): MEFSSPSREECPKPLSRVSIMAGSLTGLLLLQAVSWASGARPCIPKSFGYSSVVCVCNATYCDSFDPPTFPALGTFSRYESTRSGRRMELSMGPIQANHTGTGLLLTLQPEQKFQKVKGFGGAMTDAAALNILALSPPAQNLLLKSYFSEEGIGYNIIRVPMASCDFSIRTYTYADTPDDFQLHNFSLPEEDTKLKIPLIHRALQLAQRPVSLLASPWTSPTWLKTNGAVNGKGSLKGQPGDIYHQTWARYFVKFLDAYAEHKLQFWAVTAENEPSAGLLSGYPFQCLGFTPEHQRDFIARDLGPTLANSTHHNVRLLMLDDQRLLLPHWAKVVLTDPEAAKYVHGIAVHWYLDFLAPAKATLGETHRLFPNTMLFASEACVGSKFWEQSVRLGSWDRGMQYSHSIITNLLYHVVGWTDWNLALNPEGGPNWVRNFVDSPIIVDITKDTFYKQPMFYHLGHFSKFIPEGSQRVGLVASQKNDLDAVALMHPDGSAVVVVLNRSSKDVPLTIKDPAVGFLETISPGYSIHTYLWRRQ

Hexokinase-1 = biological target: T2, Hexokinase-1 (Homo sapiens, UniProt P19367); assay: hexokinase 1 activators, dose response, selectivity assay for HKDC1 activator project, biochemical (AID 504762); format: functional
T2 sequence (P19367 whole entry): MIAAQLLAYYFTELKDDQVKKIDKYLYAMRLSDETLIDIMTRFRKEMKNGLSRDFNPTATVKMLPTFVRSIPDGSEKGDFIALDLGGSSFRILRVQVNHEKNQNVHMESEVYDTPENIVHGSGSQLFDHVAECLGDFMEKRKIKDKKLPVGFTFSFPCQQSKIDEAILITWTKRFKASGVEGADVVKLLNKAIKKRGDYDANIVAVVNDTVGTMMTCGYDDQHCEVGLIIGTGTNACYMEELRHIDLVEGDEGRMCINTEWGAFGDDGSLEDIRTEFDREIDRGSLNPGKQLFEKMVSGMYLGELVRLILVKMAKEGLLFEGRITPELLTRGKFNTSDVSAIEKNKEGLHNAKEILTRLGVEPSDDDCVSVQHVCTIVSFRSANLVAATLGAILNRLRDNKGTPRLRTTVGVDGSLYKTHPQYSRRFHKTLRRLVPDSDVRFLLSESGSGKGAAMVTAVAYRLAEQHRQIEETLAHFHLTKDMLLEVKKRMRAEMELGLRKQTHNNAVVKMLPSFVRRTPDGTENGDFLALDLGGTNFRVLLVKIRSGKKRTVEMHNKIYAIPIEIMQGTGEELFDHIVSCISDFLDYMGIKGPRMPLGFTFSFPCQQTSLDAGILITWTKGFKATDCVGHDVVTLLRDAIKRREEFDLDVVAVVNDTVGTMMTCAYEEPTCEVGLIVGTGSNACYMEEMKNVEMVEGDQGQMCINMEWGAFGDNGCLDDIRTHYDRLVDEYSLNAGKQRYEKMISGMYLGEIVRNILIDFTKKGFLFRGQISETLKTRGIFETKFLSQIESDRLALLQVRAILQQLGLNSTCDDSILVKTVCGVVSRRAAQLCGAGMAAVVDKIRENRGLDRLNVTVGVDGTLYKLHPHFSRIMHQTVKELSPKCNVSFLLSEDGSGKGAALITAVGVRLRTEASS

Hexokinase HKDC1 = biological target: T3, Hexokinase HKDC1 (Homo sapiens, UniProt Q2TB90); assay: HKDC1 hexokinase activators, dose response, biochemical, W721R variant (AID 504730); format: functional
T3 sequence (Q2TB90 whole entry): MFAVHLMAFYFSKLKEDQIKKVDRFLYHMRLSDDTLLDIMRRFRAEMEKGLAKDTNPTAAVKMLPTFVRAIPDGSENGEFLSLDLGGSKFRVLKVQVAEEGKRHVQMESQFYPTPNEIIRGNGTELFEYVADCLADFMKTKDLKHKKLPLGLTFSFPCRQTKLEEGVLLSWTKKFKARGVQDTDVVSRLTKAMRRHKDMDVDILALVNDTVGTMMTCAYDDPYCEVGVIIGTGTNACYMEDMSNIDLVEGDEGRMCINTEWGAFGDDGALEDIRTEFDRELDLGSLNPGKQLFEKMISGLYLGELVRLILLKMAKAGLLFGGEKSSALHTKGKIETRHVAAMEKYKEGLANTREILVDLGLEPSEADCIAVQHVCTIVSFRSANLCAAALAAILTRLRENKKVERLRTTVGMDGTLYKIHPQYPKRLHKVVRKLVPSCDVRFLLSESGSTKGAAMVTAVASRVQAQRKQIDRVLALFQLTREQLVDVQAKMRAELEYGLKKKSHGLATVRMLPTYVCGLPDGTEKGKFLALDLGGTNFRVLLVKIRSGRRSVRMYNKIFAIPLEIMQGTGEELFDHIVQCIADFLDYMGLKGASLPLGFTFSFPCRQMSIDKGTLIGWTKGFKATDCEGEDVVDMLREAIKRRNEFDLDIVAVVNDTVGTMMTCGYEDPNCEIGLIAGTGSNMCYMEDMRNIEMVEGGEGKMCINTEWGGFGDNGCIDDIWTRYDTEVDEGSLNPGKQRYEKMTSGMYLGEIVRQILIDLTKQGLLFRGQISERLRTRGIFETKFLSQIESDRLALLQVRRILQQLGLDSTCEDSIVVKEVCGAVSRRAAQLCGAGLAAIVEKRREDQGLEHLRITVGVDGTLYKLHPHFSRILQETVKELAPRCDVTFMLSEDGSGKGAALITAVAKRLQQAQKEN

[2] = biological target: T4, Calpain-2 catalytic subunit (Sus scrofa, UniProt P43367); assay: pig calpain II inhibitor potency, dose response, biochemical, fluorogenic peptide substrate (AID 1420); format: functional
T4 sequence (P43367 whole entry): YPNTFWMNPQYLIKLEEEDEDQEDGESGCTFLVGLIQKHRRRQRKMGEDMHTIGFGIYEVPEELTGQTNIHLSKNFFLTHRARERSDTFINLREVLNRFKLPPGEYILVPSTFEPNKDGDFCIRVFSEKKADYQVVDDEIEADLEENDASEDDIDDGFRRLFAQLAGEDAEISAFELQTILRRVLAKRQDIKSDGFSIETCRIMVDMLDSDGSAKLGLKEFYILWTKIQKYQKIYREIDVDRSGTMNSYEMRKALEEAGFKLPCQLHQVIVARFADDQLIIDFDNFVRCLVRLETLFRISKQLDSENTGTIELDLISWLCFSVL

[3] = cytotoxicity in HEK-293T cells, dose response, cytotoxicity control for BCR NF-kB inhibitor project, luminescence, B-cell screen hits (AID 489021); format: functional, cell-based;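 further: HEK-293T cells carrying an NF-kB luciferase reporter; cells exposed to compound for about 14 hours before viability readout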
[4] = biological target: G-protein coupled receptor 55 (Homo sapiens, UniProt Q9Y2T6); assay: GPR55 agonists via beta-arrestin recruitment, primary screen, imaging, U2OS cells, beta-arrestin-GFP redistribution (AID 1961); format: functional
G-protein coupled receptor 55, sequence (Q9Y2T6 whole entry): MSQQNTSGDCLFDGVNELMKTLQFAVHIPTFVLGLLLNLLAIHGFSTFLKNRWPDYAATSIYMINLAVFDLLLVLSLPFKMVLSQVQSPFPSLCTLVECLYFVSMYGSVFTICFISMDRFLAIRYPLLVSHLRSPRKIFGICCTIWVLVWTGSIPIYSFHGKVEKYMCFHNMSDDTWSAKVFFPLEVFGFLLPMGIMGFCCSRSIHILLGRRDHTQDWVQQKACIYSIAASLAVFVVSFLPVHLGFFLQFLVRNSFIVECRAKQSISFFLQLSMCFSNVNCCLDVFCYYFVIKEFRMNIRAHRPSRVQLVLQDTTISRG

[5] = biological target: E3 ubiquitin-protein ligase XIAP (Homo sapiens, UniProt P98170); assay: Counter Screen using XIAP-Bir3 for Chemical Antagonists of Bir1/2 domains of IAP-family anti-apoptotic proteins. [Related pubchem assays (depositor defined):AID1018, AID1449, AID1514, AID1638, AID1749, AID1750, AID488957, AID488963]
E3 ubiquitin-protein ligase XIAP, sequence (P98170 whole entry): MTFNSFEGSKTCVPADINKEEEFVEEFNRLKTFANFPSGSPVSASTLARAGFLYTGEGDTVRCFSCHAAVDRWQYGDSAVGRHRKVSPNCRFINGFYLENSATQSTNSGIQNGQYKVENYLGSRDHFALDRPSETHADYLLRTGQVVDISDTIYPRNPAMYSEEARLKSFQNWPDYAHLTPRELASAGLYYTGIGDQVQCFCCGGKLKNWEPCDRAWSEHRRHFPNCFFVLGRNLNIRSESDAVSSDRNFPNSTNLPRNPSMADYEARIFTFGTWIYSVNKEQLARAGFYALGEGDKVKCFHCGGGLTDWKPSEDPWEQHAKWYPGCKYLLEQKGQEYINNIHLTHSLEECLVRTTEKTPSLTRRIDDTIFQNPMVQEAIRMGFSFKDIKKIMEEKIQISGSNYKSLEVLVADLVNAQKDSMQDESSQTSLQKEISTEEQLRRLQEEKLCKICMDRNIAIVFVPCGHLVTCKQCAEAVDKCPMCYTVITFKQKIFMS

Ephrin type-A receptor 4 = Ephrin type-A receptor 4 (Mus musculus, UniProt Q03137); assay: inhibitors of EphA4 binding to KYL peptide, primary screen, biochemical, colorimetric, mouse EphA4 (AID 689); format: functional
Ephrin type-A receptor 4, sequence (Q03137 whole entry): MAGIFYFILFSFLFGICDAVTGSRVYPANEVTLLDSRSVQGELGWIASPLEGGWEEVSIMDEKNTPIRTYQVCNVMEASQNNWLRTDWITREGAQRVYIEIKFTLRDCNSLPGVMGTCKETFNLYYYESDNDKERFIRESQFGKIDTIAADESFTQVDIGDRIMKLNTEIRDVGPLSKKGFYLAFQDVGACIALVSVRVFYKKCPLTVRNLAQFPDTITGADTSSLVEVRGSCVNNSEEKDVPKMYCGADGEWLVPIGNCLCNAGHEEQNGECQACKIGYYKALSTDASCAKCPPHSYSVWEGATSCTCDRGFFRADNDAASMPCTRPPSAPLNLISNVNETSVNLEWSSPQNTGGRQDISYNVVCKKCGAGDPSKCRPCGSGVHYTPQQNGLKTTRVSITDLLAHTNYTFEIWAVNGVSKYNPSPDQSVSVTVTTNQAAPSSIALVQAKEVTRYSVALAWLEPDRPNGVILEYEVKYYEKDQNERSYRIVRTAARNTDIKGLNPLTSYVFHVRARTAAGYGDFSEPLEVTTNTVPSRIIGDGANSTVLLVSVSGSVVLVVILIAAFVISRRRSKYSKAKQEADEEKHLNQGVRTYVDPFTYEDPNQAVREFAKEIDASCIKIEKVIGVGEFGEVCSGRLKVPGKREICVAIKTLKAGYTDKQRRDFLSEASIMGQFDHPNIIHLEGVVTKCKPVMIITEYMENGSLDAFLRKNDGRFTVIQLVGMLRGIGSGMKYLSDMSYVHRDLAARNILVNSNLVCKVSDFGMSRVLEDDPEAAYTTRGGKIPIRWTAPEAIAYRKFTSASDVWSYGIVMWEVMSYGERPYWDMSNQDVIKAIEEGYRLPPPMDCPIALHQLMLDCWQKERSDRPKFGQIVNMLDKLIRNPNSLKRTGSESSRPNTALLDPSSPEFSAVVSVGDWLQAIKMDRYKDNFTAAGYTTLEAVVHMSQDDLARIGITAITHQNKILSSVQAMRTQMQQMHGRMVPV

Structure (SMILES) | EC50 [1] | EC50 (Hexokinase-1) | EC50 (Hexokinase HKDC1) | IC50 [2] | IC50 [3] | EC50 [4] | IC50 [5] | IC50 (Ephrin type-A receptor 4)
O=S(=O)(NC1c2cccc3cccc(c23)C1N1CCNCC1)c1ccccc1 (stereo not drawn) | 1.66 µM (active) | 13.6 µM (active) | 11.7 µM (active) | < 0.4 µM (not active) |  |  |  | 
CCC(C)N1C(=O)/C(=C/c2c(NCCCOC(C)C)nc3c(C)cccn3c2=O)SC1=S (stereo not drawn) |  |  |  |  | > 80 µM (inactive) | 0.532 µM (active) | > 20 µM (inactive) | 9.88 µM (active)
